Bounds are passed on as bounds.

Common to all, as to type: cell-based
Assay [1] concerns the target EGFR E746-A750 deletion (Homo sapiens, UniProt P00533, DEL746-750). The assay can be described thus: pEGFR Y1068 ELISA assay, NIH3T3/EGFR_E746-A750 deletion cells.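 Also: sandwich ELISA on cell lysates detecting phospho-EGFR at Tyr1068, compounds run as 11-point threefold dilution series in duplicate, IC50 from inhibition of this phosphorylation signal.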 Conditions: 3T3 Del cells, 2 hrs compound treatment; read-out: ELISA7E 3T3 Del IC50. On the technique in general: In an ELISA, binding on a coated surface is turned into a signal by an enzyme label.
Assay [2] deals with EGFR L858R (Homo sapiens, UniProt P00533, L858R). Briefly: pEGFR Y1068 ELISA assay, NIH3T3/EGFR_L858R cells.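 Also: sandwich ELISA of phospho-EGFR Tyr1068 in lysates of stably transfected NIH/3T3 pools after 2 h compound exposure at 37 °C, 11-point threefold dilution series run in duplicate.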 To be noted: 3T3 cell line, 2 hrs compound treatment; read-out: pEGFRY1068 ELISA3T3 L858R IC50.
The target of assay [3] is T1, EGFR wildtype, endogenous (Homo sapiens, UniProt P00533).
T1 construct: A549 (EGFR wildtype, endogenous); host or cells: A549
Briefly: pEGFR Y1068 ELISA assay, A549 cells.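 Also: sandwich ELISA of phospho-EGFR Tyr1068 in cell lysates, cells exposed to compound for 2 h before EGF stimulation, 11-point threefold dilution series run in duplicate.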 To be noted: full serum media, stimulated 10 min with EGF (40 ng/mL), read-out: pEGFRY1068 ELISAA549 IC50.

For assay [4], the target named is EGFR L858R+T790M (Homo sapiens, UniProt P00533, L858R/T790M). Briefly: pEGFR Y1068 ELISA assay, NIH3T3/EGFR_L858R+T790M cells.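 Also: sandwich ELISA of EGFR phosphorylated at Tyr1068 in lysates of stably transfected NIH/3T3 cells, 11-point threefold dilution series run in duplicate.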 Conditions: 3T3 cell line, 2 hrs compound treatment; read-out: pEGFRY1068 ELISA3T3T790M—L858R IC50.
The target of assay [5] is T2, EGFR Del (PC9) (Homo sapiens, UniProt P00533, DEL746-750).
T2 construct: endogenous in cells; host or cells: PC-9
The assay can be described thus: EGFR ELISA, PC9 Del cells.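 Also: cellular EGFR autophosphorylation at Tyr1068 quantified by sandwich ELISA of cell lysates after 2 h compound exposure at 37 °C, 11-point threefold dilution series.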 To be noted: read-out: EGFR_ELISA9E PC9 Del IC50.

Sequence of EGFR L858R+T790M (P00533 25-1210 T790M/L858R): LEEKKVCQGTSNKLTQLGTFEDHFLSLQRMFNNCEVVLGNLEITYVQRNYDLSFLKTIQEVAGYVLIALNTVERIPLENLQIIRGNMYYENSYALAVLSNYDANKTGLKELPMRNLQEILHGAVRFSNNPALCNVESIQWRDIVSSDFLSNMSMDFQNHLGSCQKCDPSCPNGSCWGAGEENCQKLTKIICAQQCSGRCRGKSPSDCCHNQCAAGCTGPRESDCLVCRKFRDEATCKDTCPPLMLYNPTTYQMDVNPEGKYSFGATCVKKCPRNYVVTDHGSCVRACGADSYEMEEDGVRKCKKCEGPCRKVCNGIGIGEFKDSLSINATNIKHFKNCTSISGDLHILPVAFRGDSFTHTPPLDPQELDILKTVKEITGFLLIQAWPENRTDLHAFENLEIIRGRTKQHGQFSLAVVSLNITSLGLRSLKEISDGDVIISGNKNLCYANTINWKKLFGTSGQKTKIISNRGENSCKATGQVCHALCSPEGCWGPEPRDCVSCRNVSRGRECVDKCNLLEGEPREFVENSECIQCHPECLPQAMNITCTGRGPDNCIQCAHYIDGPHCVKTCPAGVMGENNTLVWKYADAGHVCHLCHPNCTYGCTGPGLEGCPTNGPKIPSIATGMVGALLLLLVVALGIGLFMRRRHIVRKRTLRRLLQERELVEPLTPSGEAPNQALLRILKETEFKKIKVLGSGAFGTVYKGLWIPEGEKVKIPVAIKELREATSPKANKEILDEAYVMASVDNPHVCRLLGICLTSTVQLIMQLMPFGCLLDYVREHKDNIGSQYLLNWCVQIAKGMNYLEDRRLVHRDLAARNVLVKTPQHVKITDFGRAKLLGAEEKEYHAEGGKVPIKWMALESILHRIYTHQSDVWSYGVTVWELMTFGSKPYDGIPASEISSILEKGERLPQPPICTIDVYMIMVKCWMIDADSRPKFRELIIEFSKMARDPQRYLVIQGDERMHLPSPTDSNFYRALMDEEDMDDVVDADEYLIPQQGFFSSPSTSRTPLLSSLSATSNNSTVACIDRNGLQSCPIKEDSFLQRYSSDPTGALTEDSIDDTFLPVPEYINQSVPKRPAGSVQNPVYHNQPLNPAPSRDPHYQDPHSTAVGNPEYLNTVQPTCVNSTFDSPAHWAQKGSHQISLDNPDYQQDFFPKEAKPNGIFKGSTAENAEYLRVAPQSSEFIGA
T1 sequence (P00533 25-1210): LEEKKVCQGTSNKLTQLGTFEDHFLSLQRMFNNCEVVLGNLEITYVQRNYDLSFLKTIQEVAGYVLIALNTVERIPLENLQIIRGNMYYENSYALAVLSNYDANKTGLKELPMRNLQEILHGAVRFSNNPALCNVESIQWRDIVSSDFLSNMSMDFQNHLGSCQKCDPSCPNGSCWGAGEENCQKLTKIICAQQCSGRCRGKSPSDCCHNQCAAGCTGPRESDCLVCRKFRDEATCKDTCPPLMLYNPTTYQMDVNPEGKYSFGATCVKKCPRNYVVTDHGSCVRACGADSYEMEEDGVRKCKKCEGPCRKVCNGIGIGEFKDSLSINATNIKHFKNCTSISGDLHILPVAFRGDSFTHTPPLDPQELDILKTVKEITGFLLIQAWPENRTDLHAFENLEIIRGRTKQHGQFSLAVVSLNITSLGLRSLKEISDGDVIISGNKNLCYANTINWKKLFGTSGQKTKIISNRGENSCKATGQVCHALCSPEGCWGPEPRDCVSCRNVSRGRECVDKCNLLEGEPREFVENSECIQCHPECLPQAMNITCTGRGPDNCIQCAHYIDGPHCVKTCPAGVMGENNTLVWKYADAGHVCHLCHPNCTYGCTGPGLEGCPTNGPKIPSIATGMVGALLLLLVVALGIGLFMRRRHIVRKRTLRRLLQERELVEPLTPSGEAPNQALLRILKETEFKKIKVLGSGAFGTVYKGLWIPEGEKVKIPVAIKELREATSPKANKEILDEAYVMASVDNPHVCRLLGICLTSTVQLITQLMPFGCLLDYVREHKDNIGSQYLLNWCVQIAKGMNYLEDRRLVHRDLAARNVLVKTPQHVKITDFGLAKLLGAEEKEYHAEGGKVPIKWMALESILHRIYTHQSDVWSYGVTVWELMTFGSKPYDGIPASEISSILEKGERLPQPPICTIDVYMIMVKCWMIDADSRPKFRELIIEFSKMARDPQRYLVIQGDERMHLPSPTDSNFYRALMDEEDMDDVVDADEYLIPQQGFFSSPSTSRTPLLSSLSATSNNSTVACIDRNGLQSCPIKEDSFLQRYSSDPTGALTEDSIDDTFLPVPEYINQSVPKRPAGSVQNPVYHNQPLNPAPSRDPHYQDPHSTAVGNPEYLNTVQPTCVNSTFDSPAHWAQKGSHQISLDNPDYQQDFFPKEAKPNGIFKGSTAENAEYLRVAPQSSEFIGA
T2 sequence (P00533 with tags, fused parts or gaps DEL746-750): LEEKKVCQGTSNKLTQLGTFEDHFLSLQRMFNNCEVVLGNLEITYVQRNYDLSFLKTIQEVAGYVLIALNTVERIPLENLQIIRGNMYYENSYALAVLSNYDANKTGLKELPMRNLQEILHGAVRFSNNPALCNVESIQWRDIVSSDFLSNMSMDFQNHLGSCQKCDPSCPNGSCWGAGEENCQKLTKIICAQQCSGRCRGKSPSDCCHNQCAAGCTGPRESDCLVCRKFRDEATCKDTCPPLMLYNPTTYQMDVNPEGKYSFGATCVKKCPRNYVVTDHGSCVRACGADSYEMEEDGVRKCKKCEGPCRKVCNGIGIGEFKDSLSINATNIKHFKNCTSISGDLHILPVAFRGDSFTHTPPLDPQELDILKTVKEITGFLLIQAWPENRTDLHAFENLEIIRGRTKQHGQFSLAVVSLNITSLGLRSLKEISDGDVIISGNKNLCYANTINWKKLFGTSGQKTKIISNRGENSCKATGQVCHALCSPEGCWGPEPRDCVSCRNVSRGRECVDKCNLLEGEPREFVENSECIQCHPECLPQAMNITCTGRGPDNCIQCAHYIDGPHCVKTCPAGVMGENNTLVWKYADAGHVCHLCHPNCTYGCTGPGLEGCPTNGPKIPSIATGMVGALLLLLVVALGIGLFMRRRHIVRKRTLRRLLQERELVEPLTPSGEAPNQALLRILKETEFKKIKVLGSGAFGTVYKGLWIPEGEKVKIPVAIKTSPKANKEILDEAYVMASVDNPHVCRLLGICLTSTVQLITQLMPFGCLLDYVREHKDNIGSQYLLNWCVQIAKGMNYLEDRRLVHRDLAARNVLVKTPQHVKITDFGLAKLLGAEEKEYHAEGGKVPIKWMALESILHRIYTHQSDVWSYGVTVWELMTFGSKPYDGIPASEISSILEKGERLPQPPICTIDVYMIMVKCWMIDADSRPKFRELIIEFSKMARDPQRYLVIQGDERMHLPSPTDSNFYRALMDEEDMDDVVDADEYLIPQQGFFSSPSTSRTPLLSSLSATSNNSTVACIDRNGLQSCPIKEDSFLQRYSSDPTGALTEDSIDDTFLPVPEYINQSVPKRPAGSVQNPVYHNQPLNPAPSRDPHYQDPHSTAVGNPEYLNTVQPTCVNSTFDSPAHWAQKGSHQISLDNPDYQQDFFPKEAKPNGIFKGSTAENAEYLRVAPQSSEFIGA
Sequence of EGFR E746-A750 deletion (P00533 with tags, fused parts or gaps DEL746-750): as above

As to `C=CC(=O)N[C@H]1C[C@@H](Oc2nc(Nc3cnn(C)c3)nc3[nH]cnc23)C1` (single isomer, unassigned) [Example 55], in assay [1], the IC50 is greater than 10000 nM.

`C=CC(=O)N[C@H]1C[C@H](Oc2nc(Nc3cnn(C)c3)nc3[nH]cnc23)C1` (single isomer, unassigned) [Example 56]: the IC50 in assay [1] was greater than 10000 nM.

Regarding `C=CC(=O)Nc1cccc(Oc2nc(Nc3cnn(C4CCN(C)C4)c3)nc3[nH]cnc23)c1` (centres unmarked) [Example 7, N-{3-[(2-{[1-(1-methylpyrrolidin-3-yl)-1H-pyrazol-4-yl]amino}-9H-purin-6-yl)oxy]phenyl}prop-2-enamide], the IC50 was 1120 nM in assay [2], greater than 10000 nM in assay [3], 1130 nM in assay [1] and 396 nM in assay [4].

As for `C=CC(=O)Nc1cccc(Oc2nc(Nc3cnn(C)c3)nc3[nH]cc(-c4cccnc4)c23)c1` [Example 8, N-[3-({2-[(1-methyl-1H-pyrazol-4-yl)amino]-5-(pyridin-3-yl)-7H-pyrrolo[2,3-d]pyrimidin-4-yl}oxy)phenyl]prop-2-enamide], the IC50 in assay [2] was determined as 25 nM; in assay [3], 1370 nM; in assay [1], 8 nM; in assay [5], 3 nM; in assay [4] it was 17 nM.

For the compound `C=CC(=O)N1CC[C@@H](Oc2nc(Nc3cnn(C)c3)nc3[nH]cc(C#N)c23)C1` [Example 20], the IC50 was greater than 10000 nM in assay [2], greater than 10000 nM in assay [3], 8400 nM in assay [1] and 1820 nM in assay [4].

As for `C=CC(=O)Nc1cccc(Oc2nc(Nc3cc(C)nn3C)nc3[nH]ccc23)c1` [Example 26], the IC50 worked out at 177 nM in assay [2], 6760 nM in assay [3], 135 nM in assay [1] and 21 nM in assay [4].

With `C=CC(=O)N1CCc2c(Oc3nc(Nc4ccn(C)n4)nc4[nH]ccc34)cccc21` [Example 29], in assay [1], the IC50 was 116 nM.

With `C=CC(=O)Nc1cccc(Oc2nc(Nc3cn(C)nc3C)nc3[nH]ccc23)c1` [Example 30], the IC50 was 91 nM in assay [2], 2390 nM in assay [3], 25 nM in assay [1] and 9 nM in assay [4].

Regarding `C=CC(=O)Nc1cccc(Oc2nc(Nc3cnn(C4CCN(C)CC4)c3)nc3[nH]ccc23)c1` [Example 33], the IC50 in assay [2] came out at 120 nM; in assay [3] it was 2210 nM; in assay [1], 27 nM; in assay [4], 20 nM.

On to `C=CC(=O)Nc1cccc(Oc2nc(Nc3cnn(C4CCOC4)c3)nc3[nH]ccc23)c1` (centres unmarked) [Example 39], for which the IC50 was found to be 190 nM in assay [2], 2800 nM in assay [3], 100 nM in assay [1] and 15 nM in assay [4].

As for `C=CS(=O)(=O)N1CCc2c(Oc3nc(Nc4cnn(C)c4)nc4[nH]ccc34)cccc21` [Example 44], the IC50 in assay [2] was determined as 552 nM; in assay [3] it was 3560 nM; in assay [1] it was 90 nM; in assay [4], 25 nM.

Consider `C=CC(=O)Nc1cccc(Oc2nc(Nc3cc(CC)nn3C)nc3[nH]ccc23)c1` [Example 47], for which the IC50 is 752 nM in assay [2], greater than 10000 nM in assay [3], 317 nM in assay [1] and 50 nM in assay [4].

As to `C=CC(=O)Nc1cc(F)cc(Oc2nc(Nc3ccn(C)n3)nc3[nH]ccc23)c1` [Example 49], the IC50 in assay [2] worked out at 97 nM; in assay [3], 2020 nM; in assay [1], 22 nM; in assay [4], 7 nM.

In the case of `C=CC(=O)Nc1cccc(Oc2nc(Nc3ccn(CCN(C)C)n3)nc3[nH]ccc23)c1` [Example 51], the IC50 in assay [2] was 431 nM; in assay [3] it was greater than 10000 nM; in assay [1] it was 137 nM; in assay [4], 35 nM.

For the compound `C=CC(=O)Nc1cccc(Oc2nc(Nc3cnn(CCN(C)C)c3)nc3[nH]cnc23)c1` [Example 53], the IC50 is 1140 nM in assay [2], greater than 10000 nM in assay [3], 663 nM in assay [1] and 355 nM in assay [4].

With `C=CC(=O)Nc1cccc(Oc2nc(Nc3cnn(C)c3)nc3[nH]cnc23)c1` [Example 54], the IC50 is 672 nM in assay [2], greater than 10000 nM in assay [3], 192 nM in assay [1] and 168 nM in assay [4].

Take `C=CC(=O)Nc1cccc(Oc2nc(Nc3cnn(CC(=O)N(C)C)c3)nc3[nH]ccc23)c1` [Example 58]: the IC50 is greater than 10000 nM in assay [2], greater than 10000 nM in assay [3] and 681 nM in assay [4].

With `C=CC(=O)Nc1cccc(Oc2nc(Nc3ccn(C)n3)nc3[nH]ccc23)c1F` [Example 59], the IC50 in assay [2] is 78 nM; in assay [3], greater than 7890 nM; in assay [1], 36 nM; in assay [4], 7 nM.

In the case of `C=CC(=O)Nc1cccc(Oc2nc(Nc3cnn(C)c3)nc3[nH]cc(-c4cnn(C)c4)c23)c1` [Example 60], the IC50 in assay [2] is 23 nM; in assay [3], 1860 nM; in assay [1], 12 nM; in assay [4] it was 16 nM.

As for `C=CC(=O)N(C)C1CC(Oc2nc(Nc3cnn(C)c3)nc3[nH]cc(C#N)c23)C1` (centres unmarked) [Example 61], the IC50 in assay [2] was 1700 nM; in assay [3], greater than 10000 nM; in assay [1] it was 581 nM; in assay [4], 189 nM.

As to `C=CC(=O)N1C[C@@H]2[C@H](C1)[C@H]2Oc1nc(Nc2cnn(C)c2)nc2[nH]cc(Cl)c12` [Example 66], the IC50 in assay [2] is 120 nM; in assay [3] it was greater than 10000 nM; in assay [1] it was 309 nM; in assay [4], 9 nM.

For the compound `C=CC(=O)N1C[C@H](COc2nc(Nc3cnn(CC)n3)nc3[nH]cc(Cl)c23)[C@@H](OC)C1` [Example 67], the IC50 was 49 nM in assay [2]; greater than 10000 nM in assay [3]; 172 nM in assay [1]; 141 nM in assay [5]; 8 nM in assay [4].

`C=CC(=O)N[C@H]1C[C@@](C)(Oc2nc(Nc3cnn(C)c3)nc3[nH]cc(Cl)c23)C1` [Example 69]: the IC50 in assay [2] was 287 nM; in assay [3], greater than 9370 nM; in assay [1] it was 117 nM; in assay [5], 465 nM; in assay [4] it was 19 nM.

Consider `C=CC(=O)N1CC[C@@H](Nc2nc(Nc3cnn(C)c3)nc3[nH]cc(C#N)c23)C1` [Example 78], for which the IC50 is greater than 10000 nM in assay [3] and 3220 nM in assay [5].

With `C=CC(=O)N1C[C@H](COc2nc(Nc3cnn([C@@H]4CCOC4)c3)nc3[nH]cc(Cl)c23)[C@@H](OC)C1` [Example 103], the IC50 in assay [2] is 332 nM; in assay [3] it was greater than 10000 nM; in assay [1] it was 512 nM; in assay [4] it was 15 nM.

Turning to `C=CC(=O)Nc1cccc(Oc2nc(Nc3cc(OCCN(C)C)nn3C)nc3[nH]ccc23)c1F` [Example 104], the IC50 was 123 nM in assay [2], greater than 10000 nM in assay [3], 110 nM in assay [1] and 25 nM in assay [4].

Turning to `C=CC(=O)Nc1cccc(Oc2nc(Nc3cnn([C@H]4CCN(C)C4)c3)nc3[nH]ccc23)c1F` [Example 106], the IC50 was 15 nM in assay [2], greater than 10000 nM in assay [3], 9 nM in assay [1] and 8 nM in assay [4].

On to `C=CC(=O)N1C[C@H](COc2nc(Nc3cnn(C)c3)nc3[nH]cc(-c4ccccn4)c23)[C@@H](OC)C1` [Example 117], for which the IC50 in assay [3] is greater than 10000 nM; in assay [5], 838 nM.

Usually IC50 stands for the concentration that gives 50% inhibition.

These data come from patent publication US9040547B2, “Pyrrolopyrimidine and purine derivatives” (PFIZER INC., priority 2011, dated 2015).
